Test results published in publication PMC5402281, “Functional, thermodynamics, structural and biological studies of in silico-identified inhibitors of Mycobacterium tuberculosis enoyl-ACP(CoA) reductase enzyme” (Scientific Reports, 2017).
“And” between values parts separate entries of the source, which are not always exact repeats. Identical values can stand only once. Like-named read-outs stand apart in the source and are kept apart here. Marks after values point to notes of the source that are not given here.

Assays:
[1] = molecular target: T1, MtInhA:NADH binary complex (Mycobacterium tuberculosis, UniProt P9WGR1); assay: biochemical; assay type: binding; conditions: for ΔG: estimated from ΔH and ΔS (Eq. 7); for ΔH / ΔS: van't Hoff analysis, 15–30 °C
T1 construct: made in house
T1 sequence (P9WGR1 whole entry, looked up, one chain of several): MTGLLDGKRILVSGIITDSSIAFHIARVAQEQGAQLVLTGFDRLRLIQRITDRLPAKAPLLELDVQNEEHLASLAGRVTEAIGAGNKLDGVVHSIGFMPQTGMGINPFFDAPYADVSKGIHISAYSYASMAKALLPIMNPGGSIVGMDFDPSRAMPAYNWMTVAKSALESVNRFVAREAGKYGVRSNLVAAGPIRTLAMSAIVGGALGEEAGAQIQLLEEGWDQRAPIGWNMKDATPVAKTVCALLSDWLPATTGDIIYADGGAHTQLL

M. tuberculosis H37Rv = assay: microbe, parasite or virus in culture; assay type: cell-based; conditions: Mycobacterium tuberculosis
[2] = system: M. tuberculosis H37Rv in infected RAW 264.7 macrophages; assay: Intracellular activity in M. tuberculosis-infected macrophages (CFU); assay type: cell-based, Mycobacterium tuberculosis; conditions: 5 μM; for Mean log CFU/well ± SEM: 5 days of incubation; for nature of intracellular activity (bactericidal / bacteriostatic): 5 days, vs early and late control
Zebrafish embryos = conditions: zebrafish (Danio rerio)
Protocol: (§1) An HPLC equipped with a quaternary pump, DAD detector, degasser, column oven and an automatic injection system was used in this set of experiments (Thermo® Scientific, Sunnyvale, USA). Stock standard solutions (1 M) of Labio_16 and Labio_17 were prepared by diluting each standard in DMSO. Standard solutions were prepared by diluting the stock solution in fish water, yielding final concentrations of 0.625, 1.25, 2.50, 5.0 and 10.0 μM for Labio_16; and 0.625, 1.25, 2.50, 5.0, 10.0 and 20 μM for Labio_17 in a final volume of 0.5 mL.
(§2) Chromatographic separations were carried out using a Nucleodur C-18 column at 20 °C. The mobile phase was a 20:80% mixture of 0.1% glacial acetic acid and acetonitrile:methanol 1:1 (v/v) for Labio_16, and a mixture of 20:80% of 20 mM of ammonium acetate and acetonitrile:methanol 1:1 (v/v) for Labio_17. A flow rate of 1.5 mL min^−1 was employed in isocratic mode, with run time of 7 minutes for Labio_16 and 12 minutes for Labio_17. The DAD detector was set at 300 nm and a full scan was continuously performed. The calibration curve for both analytes presented a correlation coefficient above 0.99.

[3] = assay type: physicochemical
Protocol: as §1, §2

[4] = 216 h, 7 days + 48 h resazurin, read-out: MIC H37Rv
[5] = conversion of μg mL^−1 value, read-out: MIC H37Rv converted to

Row | SMILES | Kd ([1]; 15 °C) | Kd ([1]; 20 °C) | Kd ([1]; 25 °C (298.15 K)) | Kd ([1]; 30 °C) | ΔG [1] | ΔH [1] | ΔS [1] | MIC (M. tuberculosis H37Rv; [4]) | MIC (M. tuberculosis H37Rv; [5]) | Mean log CFU/well ± SEM [2] | nature of intracellular activity (bactericidal / bacteriostatic) [2] | decrease of compound in in vivo assay medium (Zebrafish embryos) | decrease in compound concentration in stability test [3]
1 | Cc1ccccc1OCc1nc(-c2ccc(NC(=O)c3cccs3)cc2)no1 [Labio_16] | 900 ± 200 nM | 1200 ± 100 nM | 1500 ± 200 nM | 2000 ± 100 nM | -8.0 kcal/mol and -8.0 ± 3.6 kcal/mol | -9.4 kcal/mol and -9.4 ± 06 kcal/mol | −4.8 cal.mol^−1.K^−1 and −4.8 ± 2.2 cal.mol^−1.K^−1 | 2.5 µg/mL | 6.4 µM | 3.9 ± 0.1 log CFU/well | bacteriostatic | 55 ± 2% | 21%
2 | CCOC(=O)c1ccc2nc(C)cc(Nc3ccc(N4CCCCC4)cc3)c2c1 [Labio_17] | – | – | 7200 ± 500 nM | – | -7.1 ± 0.8 kcal/mol | -23.3 ± 1.9 kcal/mol | −54.5 ± 6.5 cal.mol^−1.K^−1 | 5 µg/mL | 12.8 µM | 3.4 ± 0.1***^++ log CFU/well | bactericidal | 55 ± 2% | 21%
